Data taken from patent US10869931B2, “Polyethylene glycol-modified angiogenesis inhibitor HM-1 and application thereof” (NANJING ANJI BIOLOGICAL TECHNOLOGY CO.,LTD, priority 2016, dated 2020).
Marks after values point to notes of the source that are not given here. Where no end group is shown, it is not given here.

Key:
[1] = system: xylene-induced ear swelling in Kunming mice; assay: Xylene-induced ear swelling in mice; format: in vivo, mouse; details: for Inhibition rate: ear swelling vs control
Method in brief: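 Kunming mice were dosed once daily for 5 days (aspirin 200 mg/kg as positive control, saline as blank). One hour after the last dose, xylene was applied to the right ear, with the left ear as untreated reference. Ear punches were weighed 2 h later; swelling degree = right − left weight, rate = degree/left weight ×100%.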

[2] = system: Esophageal cancer tumor cells; assay: MTT proliferation inhibition, esophageal cancer cells; format: cell-based, human; design: concentration or dose not given beside the values; details: 48 h
Method in brief: (§1)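 Tumour cells plated at 2×10^4 cells/mL, attached overnight, then exposed to dilutions of mPEG-HM-1 for 48 h at 37 °C, 5% CO2. MTT added 4 h, formazan dissolved in DMSO, absorbance 570/630 nm; growth inhibition = 1 − treated/untreated, three independent repeats, mean±SD.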

[3] = system: Gastric cancer tumor cells; assay: MTT proliferation inhibition, gastric cancer cells; format: cell-based, human; design: concentration or dose not given beside the values; details: 48 h
Method in brief: as §1

[4] = system: Kidney cancer tumor cells; assay: MTT proliferation inhibition, kidney cancer cells; format: cell-based, human; design: concentration or dose not given beside the values; details: 48 h
Method in brief: as §1

[5] = system: Thyroid cancer tumor cells; assay: MTT proliferation inhibition, thyroid cancer cells; format: cell-based, human; design: concentration or dose not given beside the values; details: 48 h
Method in brief: as §1

[6] = system: Bladder Cancer tumor cells; assay: MTT proliferation inhibition, bladder cancer cells; format: cell-based, human; design: concentration or dose not given beside the values; details: 48 h
Method in brief: as §1

[7] = system: carrageenan-induced toe swelling in SD rats; assay: Carrageenan-induced acute toe swelling in rats; format: in vivo, rat; design: Swelling: unit not given here
Method in brief: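 SD rats dosed with mPEG-HM-1 once daily for 3 days […]; 1 h after last dose, 0.1 mL 1% carrageenan injected subcutaneously into right hind paw. Paw volume measured by liquid displacement at 1, 3, 5 and 7 h; swelling = post- minus pre-inflammation volume (mL).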

[8] = system: IL-1β production by mouse peritoneal macrophages; assay: IL-1β production by mouse peritoneal macrophages (ELISA); format: cell-based; details: 48 h
Method in brief: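 Starch-elicited mouse peritoneal macrophages (2×10^6 cells/mL), adhered 3 h, treated with low, medium and high concentrations of mPEG-HM-1 for 48 h; dexamethasone as positive control. Supernatant IL-1β quantified by sandwich ELISA at OD450.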

[9] = system: collagen induced arthritis (CIA) in DBA/1 mice; assay: Collagen-induced mouse arthritis (CIA) model; format: in vivo; details: for Joint swelling / Left and right paw swelling / Clinical score: CIA DBA/1 mice; for Clinical score: maximum score 16
[10] = 40 mg/kg once daily for 5 days, 2 h after xylene
[11] = 80 mg/kg once daily for 5 days, 2 h after xylene
[12] = 80 mg/kg once a day for 3 days, 1 h after carrageenan
[13] = 80 mg/kg once a day for 3 days, 3 h after carrageenan
[14] = 80 mg/kg once a day for 3 days, 5 h after carrageenan
[15] = 80 mg/kg once a day for 3 days, 7 h after carrageenan
[16] = 80 mg/kg subcutaneous from day 30 of modeling
[17] = 10 mg/kg once daily for 5 days, 2 h after xylene
[18] = 20 mg/kg once daily for 5 days, 2 h after xylene
[19] = 20 mg/kg once a day for 3 days, 1 h after carrageenan
[20] = 20 mg/kg once a day for 3 days, 3 h after carrageenan
[21] = 20 mg/kg once a day for 3 days, 5 h after carrageenan
[22] = 20 mg/kg once a day for 3 days, 7 h after carrageenan
[23] = 10 mg/kg subcutaneous from day 30 of modeling
[24] = 40 mg/kg once a day for 3 days, 1 h after carrageenan
[25] = 40 mg/kg once a day for 3 days, 3 h after carrageenan
[26] = 40 mg/kg once a day for 3 days, 5 h after carrageenan
[27] = 40 mg/kg once a day for 3 days, 7 h after carrageenan
[28] = 20 mg/kg subcutaneous from day 30 of modeling
[29] = 40 mg/kg subcutaneous from day 30 of modeling

Substance	Swelling [1, 10]	Inhibition rate ([1]; 40 mg/kg once daily for 5 days)	Swelling [1, 11]	Inhibition rate ([1]; 80 mg/kg once daily for 5 days)	rate of growth inhibition [2]	rate of growth inhibition [3]	rate of growth inhibition [4]	rate of growth inhibition [5]	rate of growth inhibition [6]	Swelling [7, 12]	Swelling [7, 13]	Swelling [7, 14]	Swelling [7, 15]	IL-1β ([8]; 40 μg/mL)	Inhibition Rate of IL-1β production ([8]; 40 μg/mL)	IL-1β ([8]; 80 μg/mL)	Swelling [1, 18]	Inhibition rate ([1]; 20 mg/kg once daily for 5 days)	IL-1β ([8]; 20 μg/mL)	Inhibition Rate of IL-1β production ([8]; 20 μg/mL)	further results
mPEG-ALD40k-Arg-Gly-Ala-Asp-Arg-Ala-Gly-Gly-Gly-Gly-Arg-Gly-Asp ({mPEG‑ALD 40 kDa}-RGADRAGGGGRGD) [mPEG-ALD40k-HM-1]	5.41 ± 0.16 mg	11.53%	4.77 ± 0.62* mg	22.02%	58.11 ± 14.67%	70.66 ± 18.72%	68.46 ± 20.98%	49.03 ± 13.08%	43.22 ± 10.31%	0.26 ± 0.14	0.35 ± 0.13	0.43 ± 0.14	0.33 ± 0.17	742.06 ± 16.59 pg/mL	19.07%	664.40 ± 18.43 pg/mL	–	–	–	–	Swelling ([1]; 160 mg/kg once daily for 5 days, 2 h after xylene): 4.16 ± 0.25** mg; Inhibition rate ([1]; 160 mg/kg once daily for 5 days): 32.09%; Swelling ([7]; 160 mg/kg once a day for 3 days, 1 h after carrageenan): 0.24 ± 0.13; Swelling ([7]; 160 mg/kg once a day for 3 days, 3 h after carrageenan): 0.34 ± 0.14; Swelling ([7]; 160 mg/kg once a day for 3 days, 5 h after carrageenan): 0.44 ± 0.15; Swelling ([7]; 160 mg/kg once a day for 3 days, 7 h after carrageenan): 0.34 ± 0.15; Inhibition Rate of IL-1β production ([8]; 80 μg/mL): 27.54%; IL-1β ([8]; 160 μg/mL): 495.96 ± 10.95 pg/mL; Inhibition Rate of IL-1β production ([8]; 160 μg/mL): 45.91%; Joint swelling [9, 16]: 0.77 ± 0.14 mm; Left and right paw swelling [9, 16]: 0.79 ± 0.12 mm; Clinical score [9, 16]: 8.97 ± 1.42
mPEG-SC5k-Arg-Gly-Ala-Asp-Arg-Ala-Gly-Gly-Gly-Gly-Arg-Gly-Asp ({mPEG‑SC 5 kDa}-RGADRAGGGGRGD) [mPEG-SC5k-HM-1]	–	–	–	–	44.38 ± 10.72%	52.12 ± 13.22%	51.07 ± 12.45%	39.23 ± 13.18%	35.72 ± 11.52%	–	–	–	–	–	–	–	4.17 ± 0.19** mg	32.10%	561.18 ± 13.21 pg/mL	40.11%	Inhibition rate ([1]; 5 mg/kg once daily for 5 days): 9.57%; Swelling ([1]; 5 mg/kg once daily for 5 days, right minus left ear piece weight 2 h after xylene): 5.55 ± 0.21 mg; Swelling [1, 17]: 4.90 ± 0.35* mg; Inhibition rate ([1]; 10 mg/kg once daily for 5 days): 20.13%; Swelling ([7]; 10 mg/kg once a day for 3 days, 1 h after carrageenan): 0.24 ± 0.12; Swelling ([7]; 10 mg/kg once a day for 3 days, 3 h after carrageenan): 0.37 ± 0.14; Swelling ([7]; 10 mg/kg once a day for 3 days, 5 h after carrageenan): 0.42 ± 0.16; Swelling ([7]; 10 mg/kg once a day for 3 days, 7 h after carrageenan): 0.32 ± 0.13; Swelling [7, 19]: 0.23 ± 0.10; Swelling [7, 20]: 0.33 ± 0.20; Swelling [7, 21]: 0.38 ± 0.13; Swelling [7, 22]: 0.34 ± 0.15; IL-1β ([8]; 5 μg/mL): 762.83 ± 15.46 pg/mL; Inhibition Rate of IL-1β production ([8]; 5 μg/mL): 18.59%; IL-1β ([8]; 10 μg/mL): 678.12 ± 12.09 pg/mL; Inhibition Rate of IL-1β production ([8]; 10 μg/mL): 27.63%; Joint swelling [9, 23]: 0.81 ± 0.12 mm; Left and right paw swelling [9, 23]: 0.79 ± 0.11 mm; Clinical score [9, 23]: 9.10 ± 1.27
mPEG-SC10k-Arg-Gly-Ala-Asp-Arg-Ala-Gly-Gly-Gly-Gly-Arg-Gly-Asp ({mPEG‑SC 10 kDa}-RGADRAGGGGRGD) [mPEG-SC10k-HM-1]	3.98 ± 0.21** mg	35.20%	–	–	52.18 ± 10.25%	56.22 ± 16.19%	60.07 ± 14.24%	46.23 ± 13.05%	42.76 ± 10.06%	–	–	–	–	553.03 ± 14.12 pg/mL	40.98%	–	4.83 ± 0.32* mg	21.37%	666.50 ± 11.93 pg/mL	28.87%	Swelling [1, 17]: 5.49 ± 0.23 mg; Inhibition rate ([1]; 10 mg/kg once daily for 5 days): 10.55%; Swelling [7, 19]: 0.25 ± 0.11; Swelling [7, 20]: 0.38 ± 0.15; Swelling [7, 21]: 0.43 ± 0.17; Swelling [7, 22]: 0.31 ± 0.11; Swelling [7, 24]: 0.22 ± 0.09; Swelling [7, 25]: 0.32 ± 0.19; Swelling [7, 26]: 0.37 ± 0.12; Swelling [7, 27]: 0.34 ± 0.13; IL-1β ([8]; 10 μg/mL): 758.05 ± 15.18 pg/mL; Inhibition Rate of IL-1β production ([8]; 10 μg/mL): 19.10%; Joint swelling [9, 28]: 0.79 ± 0.13 mm; Left and right paw swelling [9, 28]: 0.77 ± 0.12 mm; Clinical score [9, 28]: 9.06 ± 1.24
mPEG-SC20k-Arg-Gly-Ala-Asp-Arg-Ala-Gly-Gly-Gly-Gly-Arg-Gly-Asp ({mPEG‑SC 20 kDa}-RGADRAGGGGRGD) [mPEG-SC20k-HM-1]	4.69 ± 0.79* mg	23.67%	3.77 ± 0.33** mg	38.58%	55.51 ± 16.22%	66.14 ± 20.08%	67.29 ± 18.16%	50.78 ± 13.46%	50.39 ± 11.73%	0.26 ± 0.10	0.33 ± 0.12	0.40 ± 0.13	0.32 ± 0.17	653.20 ± 18.59 pg/mL	30.29%	512.27 ± 10.50 pg/mL	5.38 ± 0.17 mg	12.36%	761.42 ± 16.96 pg/mL	18.74%	Swelling [7, 24]: 0.28 ± 0.14; Swelling [7, 25]: 0.35 ± 0.17; Swelling [7, 26]: 0.42 ± 0.15; Swelling [7, 27]: 0.37 ± 0.16; inhibition of carrageenan-induced toe swelling (in words) ([7]; rats, 80 mg/kg, once a day for 3 days): most effective; Inhibition Rate of IL-1β production ([8]; 80 μg/mL): 45.33%; Joint swelling [9, 29]: 0.76 ± 0.12 mm; Left and right paw swelling [9, 29]: 0.72 ± 0.15 mm; Clinical score [9, 29]: 9.00 ± 1.25; limbs score (in words) ([9]; CIA mice, subcutaneous, once every three days, vs model control group): significantly lower than that of the model control group
